Patent US20240099951A1, “HAIR GROWTH STIMULANT” (ADJUVANT HOLDINGS CO., LTD., priority 2020, published 2024)

System: skin samples derived from C57BL/6N mouse dorsal body hair skin grafted onto Balb/c nu/nu mice
Assay: Evaluation of hair growth activity: drug applied on skin samples transplanted in mice
Format: in vivo
Procedure: C57BL/6N mice (male) and Balb/c nu/nu mice (female) were purchased from Japan SLC, Inc. (Japan) and bred, and were thereafter made available for the following testing. Note that the testing and breeding of animals complied with pertinent laws, regulations, ordinances, and guidelines, and was performed with the approval of the Experimental Ethics Review Board of the Institute of Physical and Chemical Research. The following reagents were respectively prepared. • Comparative Example 1: 60% aqueous ethanol solution • Comparative Example 2: 5% minoxidil solution • Comparative Example 3: 3% minoxidil solution • Comparative Example 4: 1% minoxidil solution • Working Example 1: 3% phytosphingosine solution • Working Example 2: 1% phytosphingosine solution To collect dorsal body hair skin in the form of anagen stage VI skin 12 to 14 days following depilation, C57BL/6N mice of age 7 to 8 weeks were depilated at locations where dorsal body hair skin was intended to be collected, and were bred for 12 to 14 days. The depilated C57BL/6N mice were thereafter euthanized by cervical dislocation, following which a suitable amount of dorsal body hair skin was collected from the locations at which dorsal body hair skin was intended to be collected. The collected skin was immersed in DMEM culture medium (hereinafter “DMEM 10”) which contained 10 mM HEPES, 10% fetal bovine serum, and 1% penicillin/streptomycin solution. The collected dorsal body hair skin was grasped with bent-nose curved tweezers and was treated by immersion for 10 seconds in a sterilizing solution. Sterilization treatment was performed by carrying out treatment with 7% povidone iodine solution two times, treatment with PBS (−) three times, and treatment with DMEM 10 two times, in this order, with fresh solutions respectively being used each time. Following sterilization treatment, these were immersed in clean DMEM 10. Following sterilization treatment, the dorsal body hair skin was cut into pieces and formed into blocks. The transparent connective tissue which adhered to the cutaneous muscle layer of the skin was excised therefrom using curved scissors, and hair groups were cut into rectangular strips in parallel fashion with respect to the direction of the wave of the hair. At this time, these were cut into blocks such that there were 6 rows of hair follicles along the long axis, adjustment having been carried out so that there were 5 rows of hair follicles along the short axis. The skin samples derived from dorsal body hair skin that were prepared in accordance with the foregoing were grafted onto Balb/c nu/nu mice of age 4 to 6 weeks. More specifically, mice were anesthetized in the usual way using isoflurane gas. The dorsal area of the mice was then disinfected using 7% povidone iodine solution, following which the mice were made to assume a naturally recumbent posture. In addition, a Mani ophthalmic knife (Mani, Inc.; Japan) was used to pierce the skin at the dorsal area of the mice, the grafts which were formed extending from the epidermal layer of the skin to the subdermal layer. The skin samples derived from dorsal body hair skin were inserted into the grafts formed thereat in such fashion as to cause the hair groups to be directed toward the body surface side of the grafts. Skin sample transplanted depth was adjusted so as to cause the top portion of the hair group to be in a state such that it was exposed at the top portion of the graft. To protect the grafts, Nurseban (registered trademark) (Sunplanet Co., Ltd.; Japan) and surgical tape (3M Japan Limited; Japan) were then used as protective tape to cover the grafts at which the skin samples derived from dorsal body hair skin had been transplanted. The protective tape was removed 5 to 7 days following transplantation, and survival of the transplanted skin samples derived from dorsal body hair skin was determined by visual inspection or digital microscopy (Keyence Corporation; Japan), after which follow-up observation was carried out. […]

[1] = 1% phytosphingosine solution (Working Example 2), second hair cycle
[2] = 1% phytosphingosine solution (Working Example 2), third hair cycle
[3] = 1% phytosphingosine solution, second hair cycle vs first hair cycle
[4] = 1% phytosphingosine solution, third hair cycle vs first hair cycle
[5] = 3% phytosphingosine solution (Working Example 1), second hair cycle
[6] = 3% phytosphingosine solution (Working Example 1), third hair cycle
[7] = 3% phytosphingosine solution, second hair cycle vs first hair cycle
[8] = 3% phytosphingosine solution, third hair cycle vs first hair cycle
[9] = solution containing 1% phytosphingosine
[10] = solution containing 3% phytosphingosine

Structure (SMILES): CCCCCCCCCCCCCC[C@@H](O)[C@@H](O)[C@@H](N)CO [phytosphingosine]
- Hair shaft elongation rate [1]: 0.48 ± 0.03 mm/day
- Maximum hair shaft length [1]: 5.1 ± 0.2 mm
- Hair shaft elongation rate [2]: 0.45 ± 0.02 mm/day
- Maximum hair shaft length [2]: 4.7 ± 0.1 mm
- Hair shaft elongation rate, percent change relative to reference data [3]: 129.73%
- Maximum hair shaft length, percent change relative to reference data [3]: 113.33%
- Hair shaft elongation rate, percent change relative to reference data [4]: 121.62%
- Maximum hair shaft length, percent change relative to reference data [4]: 104.44%
- Hair shaft elongation rate [5]: 0.46 ± 0.03 mm/day
- Maximum hair shaft length [5]: 5.4 ± 0.1 mm
- Hair shaft elongation rate [6]: 0.43 ± 0.05 mm/day
- Maximum hair shaft length [6]: 5.1 ± 0.3 mm
- Hair shaft elongation rate, percent change relative to reference data [7]: 109.52%
- Maximum hair shaft length, percent change relative to reference data [7]: 122.73%
- Hair shaft elongation rate, percent change relative to reference data [8]: 102.38%
- Maximum hair shaft length, percent change relative to reference data [8]: 115.91%
- hair growth activity [9]: exhibit hair growth activity
- hair shaft elongation rate as compared with reference data [9]: significant improvement
- maximum hair shaft length as compared with reference data (solution containing 1% phytosphingosine, third hair cycle): no significant difference
- hair growth activity [10]: exhibit hair growth activity
- hair shaft elongation rate as compared with reference data [10]: no significant difference
- maximum hair shaft length as compared with reference data [10]: significant improvement
